Experimental data reported in patent US20250049776A1, “AUTOPHAGY INDUCING COMPOUNDS AND USES THEREOF, IN PARTICULAR FOR A SYSTEMIC TREATMENT OF DISEASES AND CONDITIONS” (Samsara Therapeutics Inc., priority 2021, published 2025).

Assays:
[1] = test system: Mutant PNPLA3-Expressing HepG2 Cells (GFP-PNPLA3 (1148>M)); assay: Cellular model of NAFLD: gel assay for mutant PNPLA3-expressing HepG2 cells; type: cell-based; settings: HepG2 cells transfected with GFP-PNPLA3 (1148>M), 24 hours
Procedure: Method: HepG2 cells were transfected with GFP-PNPLA3 (1148>M) overexpression plasmid using Lipofectamine LTX in DMEM media supplied with 1% Oleic Acid-BSA and were left overnight. The next day, cells were trypsinated and were seeded in a 96-well plate in DMEM media supplied with 1% Oleic Acid-BSA. After 7 hours, media was changed to standard DMEM supplied with the compound of interest. After 24 hours, cells were washed once with PBS and were lysed in RIPA buffer. Lysates were collected, centrifuged and the supernatants were mixed with Laemmli buffer (without DTT or boiling) and were loaded on a 4-20% SDS-PAGE gel. After electrophoresis, gels were directly imaged in the FITC channel to visualise the GFP signal.

ZIKV = assay: Infectivity assay ZIKV in SH-SY5Y cells; type: cell-based; settings: Zika virus, MOI 5, 48 h, E staining
Procedure: (§1) Cells were seeded in 96 well plates and the following day pre-treated with a 3-fold serial dilution of compound starting from 20 μM, in 100 μL of assay media. 24 hours later, cells were infected (without removing the media) with ZIKV or HCMV at a multiplicity of infection (MOI) compatible with multiple rounds of virus replication. DMSO-treated infected and uninfected cells were included as positive and negative controls. [table]

HCMV = assay: Infectivity assay HCMV in HFF cells; type: cell-based, Human Cytomegalovirus (HCMV); settings: Human betaherpesvirus 5, 360 h, MOI 1, 15 days, gB staining
Procedure: as §1

[2] = test system: Differentiated hepatocyte GSD1A disease model cells; assay: iPSC model of glycogen storage disease type 1A: glycogen and triglyceride quantification; type: cell-based, human; settings: hepatocytes differentiated from GSD1A patient derived iPSCs, 10 μM
Procedure: Timetable for Treatment of Cells with the Compounds: • Day 1. Differentiated hepatocyte GSD1A disease model cells (DefiniGEN Ltd) were cultured in a collagen I coated 48-well plate. Empty wells were filled with PBS. • Day 9. The racemic mixture of compounds 170 and 171 (as a solution in DMSO) was added to the disease model cells • Day 11. Media for disease model cells was replaced with fresh media with compound. • Day 12. Cells were washed once in PBS and once in HBSS and 30 μL of NP40 Lysis buffer supplied with Phosphatase and Protease inhibitor cocktail was added to each well. Plate was immediately placed on dry ice. […]
Protein quantification: An aliquot of the lysates was used for protein quantification using BCA.
Glycogen quantification: An aliquot of the lysates was boiled at 96° C. for 5 minutes. […] Supernatant was used for Glycogen quantification using MAK016 kit (Merck), following manufacturer's instructions. […] 8 μL of Hydrolysis buffer from the kit was added to one aliquot from each sample (-HE; to quantify free glucose content of the lysate). The other sample was supplied with 8 μL of Hydrolysis buffer supplied with Hydrolysis Enzyme (+HE; to quantify free glucose+glycogen content of the lysate). After 30 minutes of incubation at room temperature, 10 μL of probe mix was added to each well and the absorbance at 570 nm was measured after 30 minutes incubation at room temperature. […]

[3] = test system: Human osteosarcoma U20S cells; assay: Assay to measure lysosome and autolysosome formation (acidic vesicle formation, LysoView/LysoTracker staining); type: cell-based; settings: U20S cells
How it was run: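 U2OS cells treated with compounds in DMSO for 24 h, then stained 45 min at 37 °C with 1× LysoView 633 or 50 nM LysoTracker Deep Red, with Hoechst nuclear counterstain. Live-cell fluorescence imaging at 37 °C; acidic vesicle formation judged against DMSO-treated control.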

SH-SY5Y = assay: Cytotoxicity assay (MTT) parallel to ZIKV infectivity assay; type: cell-based; parameters: key: A “—” symbol indicates no inhibition; settings: SH-SY5Y cells, 48 h
Procedure: (§2) In parallel to the infectivity assays, in order to determine the cytotoxic properties of the compound, cells were seeded in 96 well plates and the following day pre-treated with the same serial dilutions of compound in 100 μl of assay media. The compound was left on the cells for the duration of the infectivity assays, after which a metabolic assay (MTT assay) was used to determine cell viability compared to a DMSO-treated control.

[4] = test system: adult human dermal fibroblast cells (HDFa cells); assay: Acidic vesicle formation in adult human dermal fibroblast cells; type: cell-based; settings: concentration of 10 μM
Source text: This is evidence for significant stimulation of autophagy by this compound under these conditions.

[5] = Cytotoxicity assay (MTT) parallel to HCMV infectivity assay; type: cell-based; settings: human, HFF cells, read-out: HCMV TC50
Procedure: as §2

Q: Which “fold increase in GFP breakdown Bafilomycin-sensitive-product signal versus an inactive control” value [1] does the source give for `CCCN(C(=O)c1csc(-c2cnn(-c3ccccc3)c2)n1)C1CCNC1` (racemic) [racemic mixture of compounds 170 and 171] here?
A: 3.7 fold

Q: What about the IC50 (ZIKV) of the same molecule?
A: < 15 µM

Q: And the IC50 (HCMV)?
A: < 10 µM

Q: What about the “reduction of cellular glycogen compared with the DMSO-only control” value [2] of the same molecule?
A: over 75%

Q: What about the “reduction of cellular triglycerides compared with the DMSO-only control” value [2] of the same molecule?
A: > 20%

Q: What about the “acidic vesicle formation relative to a DMSO-treated control” value ([3]; concentration of 10 μM, 24 hours) of the same molecule?
A: clearly increased

Q: What about the “increase in acidic vesicle formation” value ([3]; relative to DMSO-treated control (10 μM)) of the same molecule?
A: at least 25%

Q: And the “ZIKV TC50” value (SH-SY5Y)?
A: —

Q: And the “acidic vesicle formation relative to a DMSO-treated control” value [4]?
A: significantly greater acidic vesicle formation

Q: What about the CC50 at 15 days [5] of the same molecule?
A: > 75 µM
